Converted amounts (≈) assume the structure as drawn. Read-outs that look alike come from different tables or passages of the source.
Columns and labels:
rat kidney [1] = assay: Rat nephrotoxicity model: serum markers of GFR (BUN, serum creatinine); assay type: in vivo, Sprague-Dawley rats; details: dose-response for BUN elevation
rat kidney [2] = assay: Rat nephrotoxicity model: kidney histopathology (H&E); assay type: in vivo, Sprague-Dawley rats; details: rats, 14 d once-daily
Procedure: This rat nephrotoxicity study design used 14 days of once-daily dosing of aminoglycosides in adult Sprague-Dawley rats. Rats were allowed full access to food and water, and aminoglycosides were dosed subcutaneously at 1 mL/kg dosing volume, formulated in water. Nephrotoxicity was assessed by monitoring changes in serum markers of glomerular filtration rate (GFR), namely blood urea nitrogen (BUN) and serum creatinine. Microscopic examination of kidney slices after fixation and hematoxylin and eosin (H&E) staining was also utilized, scoring for tubular dilation, cellular casts, interstitial inflammation, and regenerative changes to the tubules.

E. coli = assay: MIC, further Brooklyn patient isolates: E. coli; assay type: cell-based; set-up: unit not given beside the values; details: E. coli (n = 3071)
Procedure: (§1) Minimum inhibitory concentrations (MIC) were determined by reference Clinical and Laboratory Standards Institute (CLSI) broth microdilution methods per M7-A7 [2006]. Briefly, serial two-fold dilutions of Compound 1 and comparator AGs (together, “the test compounds”) were prepared at 2× concentration in appropriate diluent. The dilutions were mixed in 96-well assay plates with bacterial inoculum. Bacteria were suspended in sterile saline and added to each assay plate to obtain a final concentration of 5.5×10^5 CFU/mL. The plates were incubated at 35° C. for 20 hours in ambient air. […] After incubation, assay plates were read using a microtiter plate reader at 600 nm.
(§2) Further studies analyzed a greater number of unique patient isolates obtained from Brooklyn, N.Y. hospitals (including those species described above). These species included Acinetobacter, E. coli, Enterobacter, Klebsiella, and Pseudomonas.

Enterobacter = assay: MIC, further Brooklyn patient isolates: Enterobacter; assay type: cell-based; set-up: unit not given beside the values; details: Enterobacter (n = 206)
Procedure: as §1, §2

P. aeruginosa (PA) = assay: MIC, broth microdilution, Brooklyn hospital isolates: P. aeruginosa; assay type: cell-based; details: PA (n = 33)
Procedure: (§3) In another study, the activity of Compound 1 against a collection of contemporary Gram-negative bacteria was determined. Unique patient isolates of P. aeruginosa (PA), A. baumannii (AB), K. pneumoniae (KP), E. coli (EC), and Enterobacter spp. (EB) from prior surveys at 16 Brooklyn, N.Y. hospitals were selected based on resistance patterns. The majority of isolates were fingerprinted by automated ribotyping. MICs were performed by broth microdilution. PCR was used to identify aminoglycoside-modifying enzymes (AMEs) in AB and KP and the KPC gene in Enterobacteriaceae (EN). The expression of the efflux genes mexA, C, E and X in PA, and adeB in AB was assessed by real-time RT-PCR.

K. pneumoniae (KP) = assay: MIC, broth microdilution, Brooklyn hospital isolates: K. pneumoniae; assay type: cell-based; details: KP (n = 71)
Procedure: as §3

Enterobacter spp. (EB) = assay: MIC, broth microdilution, Brooklyn hospital isolates: Enterobacter spp.; assay type: cell-based; details: EB (n = 30)
Procedure: as §3

E. coli (EC) = assay: MIC, broth microdilution, Brooklyn hospital isolates: E. coli; assay type: cell-based; details: EC (n = 32)
Procedure: as §3

A. baumannii (AB) = assay: MIC, broth microdilution, Brooklyn hospital isolates: A. baumannii; assay type: cell-based; details: AB (n = 38)
Procedure: as §3

[3] = rat, in vivo
Procedure: The AGs were administered to the rats according to the dose levels depicted in Table 6. The animals of Groups 11-13 were housed until day 15 even though their dosing ended on day 5, such that all animals were necropsied on the same day. Blood was collected in EDTA at days 0, 6, 11, and 15. 750 uL blood samples were collected and aliquoted into a lithium heparin tube and an EDTA tube. Clinical chemistry analysis was performed using the Idexx VETTEST 8008 system. Kidney samples were embedded in paraffin, sectioned, stained with hematoxylin and eosin and examined microscopically.

## CN[C@@H]1[C@@H](O[C@H]2O[C@H](CO)[C@@H](N)[C@H](O)[C@H]2O)OC2C[C@@H](N)[C@@H](O[C@H]3[C@H](O)[C@@H](O)[C@H](N)C[C@@H]3N)OC2[C@@H]1O (stereo partly shown) [Apramycin, apramycin]
Rat kidney [1]
  apparent relative nephrotoxicity (ranking): Neomycin≈Gentamicin>Tobramycin>Apramycin≈Paromomycin>Amikacin
Rat kidney [2]; 3 mg/kg
  Histopathology score (0 to 5 Scale): Casts: 0 +/− 0
  Histopathology score (0 to 5 Scale): Dilation: 0 +/− 0
  Histopathology score (0 to 5 Scale): Inflammation: 0.4 +/− 0.5
  Histopathology score (0 to 5 Scale): Regeneration: 0 +/− 0
Rat kidney [2]; 10 mg/kg
  Histopathology score (0 to 5 Scale): Casts: 0 +/− 0
  Histopathology score (0 to 5 Scale): Dilation: 0 +/− 0
  Histopathology score (0 to 5 Scale): Inflammation: 0.4 +/− 0.5
  Histopathology score (0 to 5 Scale): Regeneration: 0.6 +/− 1.3
Rat kidney [2]; 30 mg/kg
  Histopathology score (0 to 5 Scale): Casts: 0 +/− 0
  Histopathology score (0 to 5 Scale): Dilation: 0 +/− 0
  Histopathology score (0 to 5 Scale): Inflammation: 0.6 +/− 0.5
  Histopathology score (0 to 5 Scale): Regeneration: 0.6 +/− 0.5
Rat kidney [2]; 100 mg/kg
  Histopathology score (0 to 5 Scale): Casts: 1.4 +/− 0.5
  Histopathology score (0 to 5 Scale): Dilation: 0.6 +/− 0.5
  Histopathology score (0 to 5 Scale): Inflammation: 2.4 +/− 0.5
  Histopathology score (0 to 5 Scale): Regeneration: 2.4 +/− 0.5

## CC(C)(O/N=C(\C(=O)N[C@@H]1C(=O)N2C(C(=O)[O-])=C(C[n+]3ccccc3)CS[C@H]12)c1csc(N)n1)C(=O)O [CAZ, ceftazidime]
E. coli
  MIC50: ≦0.25

## CO/N=C(\C(=O)N[C@@H]1C(=O)N2C(C(=O)O)=C(CSc3nc(=O)c(O)nn3C)CS[C@H]12)c1csc(N)n1 [CRO]
E. coli
  MIC50: ≦0.25
Enterobacter
  MIC50: ≦0.25

## CO/N=C(\C(=O)N[C@@H]1C(=O)N2C(C(=O)[O-])=C(C[N+]3(C)CCCC3)CS[C@H]12)c1csc(N)n1 [FEP, cefepime]
E. coli
  MIC50: ≦0.25
  MIC90: ≦0.25
Enterobacter
  MIC50: ≦0.25

## C[C@@H](O)[C@H]1C(=O)N2C(C(=O)O)=C(SCCN=CN)C[C@H]12 [Imipenem]
P. aeruginosa (PA)
  Susceptible: 55%
P. aeruginosa (PA); Pseudomonas aeruginosa
  MIC50: 4 µg/mL (≈ 13.4 µM)
  MIC90: > 8 µg/mL
K. pneumoniae (KP)
  Susceptible: 79%
K. pneumoniae (KP); Klebsiella pneumoniae
  MIC50: 0.25 µg/mL (≈ 0.835 µM)
  MIC90: > 8 µg/mL
Enterobacter spp. (EB)
  Susceptible: 93%
Enterobacter spp. (EB); Enterobacter
  MIC50: 0.5 µg/mL (≈ 1.67 µM)
  MIC90: 2 µg/mL (≈ 6.68 µM)
E. coli (EC)
  Susceptible: 91%
E. coli (EC); Escherichia coli
  MIC50: 0.125 µg/mL (≈ 0.418 µM)
  MIC90: 4 µg/mL (≈ 13.4 µM)
A. baumannii (AB)
  Susceptible: 55%
A. baumannii (AB); Acinetobacter baumannii
  MIC50: 4 µg/mL (≈ 13.4 µM)
  MIC90: > 8 µg/mL

## NC[C@@H]1O[C@H](O[C@H]2[C@@H](O)[C@H](O[C@@H]3[C@@H](O)[C@H](N)C[C@H](N)[C@H]3O[C@H]3O[C@H](CO)[C@@H](O)[C@H](O)[C@H]3N)O[C@@H]2CO)[C@H](N)[C@@H](O)[C@@H]1O [Paromomycin, paromomycin]
Rat kidney [1]
  apparent relative nephrotoxicity (ranking): Neomycin≈Gentamicin>Tobramycin>Apramycin≈Paromomycin>Amikacin
Rat kidney [2]; 30 mg/kg
  Histopathology score (0 to 5 Scale): Casts: 0 +/− 0
  Histopathology score (0 to 5 Scale): Dilation: 1 +/− 1
  Histopathology score (0 to 5 Scale): Inflammation: 1.4 +/− 0.9
  Histopathology score (0 to 5 Scale): Regeneration: 1.4 +/− 0.5
Rat kidney [2]; 100 mg/kg
  Histopathology score (0 to 5 Scale): Casts: 2.6 +/− 0.5
  Histopathology score (0 to 5 Scale): Dilation: 3.2 +/− 0.4
  Histopathology score (0 to 5 Scale): Inflammation: 3 +/− 0
  Histopathology score (0 to 5 Scale): Regeneration: 4 +/− 0
Rat kidney [2]; 300 mg/kg
  Histopathology score (0 to 5 Scale): Casts: 0 +/− 0
  Histopathology score (0 to 5 Scale): Dilation: 0 +/− 0
  Histopathology score (0 to 5 Scale): Inflammation: 0 +/− 0
  Histopathology score (0 to 5 Scale): Regeneration: 0 +/− 0

## NC[C@H]1O[C@H](O[C@H]2[C@H](O)[C@@H](O[C@H]3O[C@H](CO)[C@@H](O)[C@H](N)[C@H]3O)[C@H](N)C[C@@H]2N)[C@H](N)C[C@@H]1O [Tobramycin, tobramycin]
[3]; 10 mg/kg
  ALB, day 6: 4.0 g/dL
  ALP, day 6: 670 U/L
  ALT: 41
  ALT, day 6: 29 U/L
  AMYL, day 6: 1719 U/L
  AST, day 6: 65 U/L
  BUN, day 6: 16 mg/dL
  Body weight Day 1: 243 g
  Body weight Day 2: 256 g
  Body weight Day 3: 264 g
  Body weight Day 4: 277 g
  Body weight Day 5: 271 g
  Body weight Day 6: 291 g
  Body weight Day 7: 299 g
  Body weight Day 8: 307 g
  Body weight Day 9: 315 g
  Body weight Day 10: 327 g
  Body weight Day 11: 333 g
  Body weight Day 12: 330 g
  Body weight Day 13: 347 g
  Body weight Day 14: 352 g
  CHOL, day 6: 78 mg/dL
  Cre, day 6: 0.8 mg/dL
  GLOB, day 6: 1.8 g/dL
  GLU, day 6: 154 mg/dL
  T-PRO, day 6: 5.9 g/dL
  TBIL: 0.1
  TBIL, day 6: 0.1 mg/dL
[3]; 30 mg/kg
  ALB, day 6: 4.0 g/dL
  ALP, day 6: 583 U/L
  ALT, day 6: 32 U/L
  AMYL, day 6: 1658 U/L
  AST, day 6: 65 U/L
  BUN, day 6: 15 mg/dL
  Body weight Day 1: 250 g
  Body weight Day 2: 256 g
  Body weight Day 3: 264 g
  Body weight Day 4: 270 g
  Body weight Day 5: 280 g
  Body weight Day 6: 288 g
  Body weight Day 7: 294 g
  Body weight Day 8: 295 g
  Body weight Day 9: 307 g
  Body weight Day 10: 318 g
  Body weight Day 11: 323 g
  Body weight Day 12: 321 g
  Body weight Day 13: 321 g
  Body weight Day 14: 330 g
  CA: 11.2
  CHOL, day 6: 81 mg/dL
  Cre, day 6: 0.7 mg/dL
  GLOB, day 6: 1.8 g/dL
  GLU, day 6: 155 mg/dL
  Organ weights Heart: 1.44
  Organ weights Kidney Rt.: 2.1
  Organ weights Liver: 11.3
  Organ weights Lung: 2.96
  Organ weights Pancreas: 0.85
  Organ weights testes: 3.45
  T-PRO, day 6: 5.8 g/dL
  TBIL: 0.1
  TBIL, day 6: 0.1 mg/dL
[3]; 100 mg/kg
  ALB, day 6: 4.0 g/dL
  ALP, day 6: 596 U/L
  ALT, day 6: 36 U/L
  AMYL, day 6: 1560 U/L
  AST, day 6: 75 U/L
  BUN, day 6: 19 mg/dL
  Body weight Day 1: 246 g
  Body weight Day 2: 251 g
  Body weight Day 3: 259 g
  Body weight Day 4: 264 g
  Body weight Day 5: 268 g
  Body weight Day 6: 277 g
  Body weight Day 7: 281 g
  Body weight Day 8: 287 g
  Body weight Day 9: 280 g
  Body weight Day 10: 293 g
  Body weight Day 11: 296 g
  Body weight Day 12: 283 g
  Body weight Day 13: 296 g
  Body weight Day 14: 299 g
  CA, day 6: 10.8 mg/dL
  CHOL, day 6: 82 mg/dL
  Cre: 0.8
  Cre, day 6: 0.7 mg/dL
  GLOB, day 6: 1.6 g/dL
  GLU, day 6: 148 mg/dL
  T-PRO, day 6: 5.6 g/dL
  TBIL: 0.1
  TBIL, day 6: 0.1 mg/dL
Rat kidney [2]; 10 mg/kg
  Histopathology score (0 to 5 Scale): Casts: 0 +/− 0
  Histopathology score (0 to 5 Scale): Dilation: 0.4 +/− 0.9
  Histopathology score (0 to 5 Scale): Inflammation: 0.4 +/− 0.9
  Histopathology score (0 to 5 Scale): Regeneration: 1 +/− 1.4
Rat kidney [2]; 30 mg/kg
  Histopathology score (0 to 5 Scale): Casts: 0.8 +/− 0.4
  Histopathology score (0 to 5 Scale): Dilation: 1.6 +/− 1.1
  Histopathology score (0 to 5 Scale): Inflammation: 1.8 +/− 0.8
  Histopathology score (0 to 5 Scale): Regeneration: 2.2 +/− 0.8
Rat kidney [2]; 100 mg/kg
  Histopathology score (0 to 5 Scale): Casts: 1.8 +/− 0.8
  Histopathology score (0 to 5 Scale): Dilation: 1.6 +/− 1.1
  Histopathology score (0 to 5 Scale): Inflammation: 2.4 +/− 0.9
  Histopathology score (0 to 5 Scale): Regeneration: 3 +/− 0.7
